Measured values published in patent publication US9018383B2, “Acylamino-substituted cyclic carboxylic acid derivatives and their use as pharmaceuticals” (Sanofi, priority 2009, dated 2015).

These compounds were tested against human Edg-2 receptor (Homo sapiens, UniProt Q92633) (assay: Determination of Edg-2 receptor inhibition by FLIPR measurements (LPA-mediated calcium liberation)). Details: CHO cells overexpressing human Edg-2 receptor, LPA 100 nM, fluo-4 calcium fluorescence; read-out: Inhibitory concentrations IC50 for inhibition of the Edg-2 receptor.
Chain of human Edg-2 receptor (Q92633 whole entry): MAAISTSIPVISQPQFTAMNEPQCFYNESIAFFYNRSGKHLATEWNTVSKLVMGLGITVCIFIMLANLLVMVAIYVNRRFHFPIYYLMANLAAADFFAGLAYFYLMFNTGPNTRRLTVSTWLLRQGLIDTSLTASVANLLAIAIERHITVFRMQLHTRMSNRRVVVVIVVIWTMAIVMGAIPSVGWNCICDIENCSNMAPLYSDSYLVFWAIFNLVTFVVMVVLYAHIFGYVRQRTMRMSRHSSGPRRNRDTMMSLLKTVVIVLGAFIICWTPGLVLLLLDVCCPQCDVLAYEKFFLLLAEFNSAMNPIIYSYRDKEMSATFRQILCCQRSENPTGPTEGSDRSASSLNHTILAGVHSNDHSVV
Type: cell-based
Method in brief: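 CHO cells stably overexpressing human Edg-2, loaded with fluo-4 AM, were pre-incubated ~5 min with compound (≤0.3% DMSO), then stimulated with 100 nM LPA 18:1 in HBSS/HEPES/probenecid, pH 7.5. Peak calcium fluorescence over ~3 min, baseline-corrected, versus DMSO gave % inhibition; IC50 from triplicates.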

| Structure (SMILES) | IC50 |
| --- | --- |
| Cc1cccc(CCOc2cc(C(=O)N[C@]3(C(=O)O)CC[C@H](C(F)(F)F)CC3)cc3c2OCO3)c1 [Example 133, cis-1-{[7-(2-m-Tolyl-ethoxy)-benzo[1,3]dioxole-5-carbonyl]-amino}-4-trifluoromethyl-cyclohexanecarboxylic acid] | < 100 nM |
| CC[C@H]1CC[C@](NC(=O)c2cc(OCCc3cccc(C)c3)c3c(c2)OCO3)(C(=O)O)CC1 [Example 134, cis-4-Ethyl-1-{[7-(2-m-tolyl-ethoxy)-benzo[1,3]dioxole-5-carbonyl]-amino}-cyclohexanecarboxylic acid] | < 100 nM |
| CC[C@H]1CC[C@@](NC(=O)c2ccc(OC)c(OCCc3ccccc3)c2)(C(=O)O)CC1 [Example 205] | < 100 nM |
| CC[C@H]1CC[C@](NC(=O)c2ccc(OC)c(OCCc3ccccc3)c2)(C(=O)O)CC1 [Example 206] | < 100 nM |
| CC[C@H]1CC[C@@](NC(=O)c2ccc(OC)c(OCCc3cccc(Cl)c3)c2)(C(=O)O)CC1 [Example 207] | < 100 nM |
| CC[C@H]1CC[C@](NC(=O)c2ccc(OC)c(OCCc3cccc(Cl)c3)c2)(C(=O)O)CC1 [Example 208] | < 100 nM |
| CC[C@H]1CC[C@](NC(=O)c2cnc(OC)c(-c3cccc(OC(F)(F)F)c3)c2)(C(=O)O)CC1 [Example 299, cis-4-ethyl-1-{[6-methoxy-5-(3-trifluoromethoxy-phenyl)-pyridine-3-carbonyl]-amino}-cyclohexanecarboxylic acid] | < 100 nM |
| CC[C@H]1CC[C@](NC(=O)c2cnc(OC)c(-c3cccc(Cl)c3Cl)c2)(C(=O)O)CC1 [Example 300] | < 100 nM |
| CC[C@H]1CC[C@](NC(=O)c2cnc(OC)c(-c3cc(F)c(F)c(F)c3)c2)(C(=O)O)CC1 [Example 301] | < 100 nM |
| CC[C@H]1CC[C@](NC(=O)c2cnc(OC)c(-c3cc(Cl)cc(C(F)(F)F)c3)c2)(C(=O)O)CC1 [Example 302] | < 100 nM |
| CC[C@H]1CC[C@](NC(=O)c2cnc(OC)c(-c3cccc(C(F)(F)F)c3)c2)(C(=O)O)CC1 [Example 303] | < 100 nM |
| CC[C@H]1CC[C@](NC(=O)c2cnc(OC)c(-c3cccc(C(F)(F)F)c3F)c2)(C(=O)O)CC1 [Example 304] | < 100 nM |
| CC[C@H]1CC[C@@](NC(=O)c2cnc(OC)c(-c3cccc(OC(F)(F)F)c3)c2)(C(=O)O)CC1 [Example 306] | < 100 nM |
| COc1ncc(C(=O)N[C@]2(C(=O)O)CC[C@H](C)CC2)cc1-c1cccc(OC(F)(F)F)c1 [Example 307] | < 100 nM |
| COc1ncc(C(=O)N[C@]2(C(=O)O)CC[C@@H](C)CC2)cc1-c1cccc(OC(F)(F)F)c1 [Example 308] | < 100 nM |
| CC[C@H]1CC[C@@](NC(=O)c2cnc(OC)c(-c3cccc(Cl)c3Cl)c2)(C(=O)O)CC1 [Example 309] | < 100 nM |
| COc1ncc(C(=O)N[C@]2(C(=O)O)CC[C@H](C)CC2)cc1-c1cccc(Cl)c1Cl [Example 310] | < 100 nM |
| COc1ncc(C(=O)N[C@]2(C(=O)O)CC[C@@H](C)CC2)cc1-c1cccc(Cl)c1Cl [Example 311] | < 100 nM |
| CC[C@H]1CC[C@@](NC(=O)c2cnc(OC)c(-c3cc(F)c(F)c(F)c3)c2)(C(=O)O)CC1 [Example 312] | 100 to 1000 nM |
| COc1ncc(C(=O)N[C@]2(C(=O)O)CC[C@H](C)CC2)cc1-c1cc(F)c(F)c(F)c1 [Example 313] | < 100 nM |
| COc1ncc(C(=O)N[C@]2(C(=O)O)CC[C@@H](C)CC2)cc1-c1cc(F)c(F)c(F)c1 [Example 314] | < 100 nM |
| COc1ncc(C(=O)N[C@]2(C(=O)O)CC[C@@H](C)CC2)cc1-c1cc(Cl)cc(C(F)(F)F)c1 [Example 315] | < 100 nM |
| CC[C@H]1CC[C@@](NC(=O)c2cnc(OC)c(-c3cccc(C(F)(F)F)c3)c2)(C(=O)O)CC1 [Example 316] | < 100 nM |
| COc1ncc(C(=O)N[C@]2(C(=O)O)CC[C@H](C)CC2)cc1-c1cccc(C(F)(F)F)c1 [Example 317] | < 100 nM |
| COc1ncc(C(=O)N[C@]2(C(=O)O)CC[C@@H](C)CC2)cc1-c1cccc(C(F)(F)F)c1 [Example 318] | < 100 nM |
